# Laboratory results as given in US20200306210A1 (ZOGENIX INTERNATIONAL LIMITED, priority 2017, published 2020).
# Counter-ions that a name gives are not always drawn.
# Columns and labels:
# Assay type in all cases: in vivo, Human
# [1] = system: children and young adults with Dravet syndrome; assay: Study 1: quality of life (PedsQL, QOLCE); conditions: increase indicates improvement
# Protocol: (§1) In Study 1, subjects were assessed using Clinical Global Impression (CGI), allowing the parent/caregiver and principal investigator to assess improvement, as well as the Quality of Life in Childhood Epilepsy (QOLCE) Scale and the Pediatric Quality of Life Inventory (PedsQL) to measure changes in the quality of life of the subject. Comparisons between treatment groups were made using Wilcoxon rank sum tests.
# In 2003, Varni and colleagues published a study intended to determine the feasibility, reliability, and validity of the 23-item PEDSQL 4.0 (Pediatric Quality of Life Inventory) Generic Core Scales as a measure of pediatric population health for children and adolescents. The instrument was given to over 10,000 families with children age 2-16 in the state of California. From Varni, et al., parent reported changes in each of the scales and summary scores that could be considered clinically meaningful include a change of >1 SEM or Standard Error of Measurement as a cut point.
# [2] = system: children and young adults with Dravet syndrome; assay: Study 1: Clinical Global Impression of Improvement (CGI-I)
# Protocol: CGI-S and CGI-I ratings were made by clinical investigators and parent/caregivers in a series of phase III trials of fenfluramine. CGI changes were measured in two randomized, controlled trials with results reported herein. Study 1 was conducted as described in Example 1 and CGI ratings were made according to a set schedule of visits made to the clinic. Tables of results and bar graphs of the statistical analyses of CGI ratings for Study 1 at visit twelve (day 113) are provided in FIGS. 1-4. […] Similar results were obtained with investigator CGI-I rating.
# as §1
# The CGI scale measures the change in the subject's clinical status from a specific point in time, i.e., the Baseline Period (and also referred to as the CGI-S, an initial ranking of severity). The CGI rating scale permits a global evaluation of the subject's improvement over time.
# [3] = system: children and young adults with Dravet syndrome; assay: Study 1: randomized, double-blind, placebo-controlled trial of ZX008, monthly convulsive seizure frequency (MCSF); conditions: for Longest seizure free interval, estimate of median treatment difference: Hodges-Lehman estimator; for Greater reduction in mean MCSF compared with placebo: 14-week treatment period; for Near-seizure freedom (0 or a single seizure during 14-week Treatment Period), % of subjects / Near-seizure freedom (0 or a single seizure during 14-week Treatment Period), number of subjects: post-hoc analysis
# Text: Human patients, age 2 to 18 years, inclusive, having a documented medical history to support a clinical diagnosis of Dravet syndrome and a history of seizures (either generalized tonic-clonic or unilateral clonic or bilateral clonic, and prolonged) were recruited, and selected for inclusion in the study according to criteria comprising a combination of age, physical and psychological characteristics, and (optionally) resistance to treatment with conventional therapies. Included subjects were assessed over the course of this 22-week study. The study protocols were reviewed and approved by the institutional review board or ethics committee for each study site before any study activation at the site. All patients or their legal representatives signed informed consent/assent prior to enrolling in the trial.
# Subjects had ≥4 convulsive seizures (tonic, tonic atonic, tonic-clonic, clonic) per 4-week period for past 12 weeks prior to screening, by parent/guardian report to investigator or investigator medical notes.
# Potential subjects enrolled in a 6-week baseline to establish seizure frequency and determine eligibility. Seizures were documented by parents or caregivers in an electronic study diary as to date, time of day, duration, and seizure type. To qualify for randomization each subject must have had ≥6 convulsive seizures during the baseline period with ≥2 in the first 3 weeks and ≥2 in the last 3 weeks. For this study convulsive seizures were defined as hemiclonic, tonic, clonic, tonic-atonic, generalized tonic-clonic, and focal with clear observable motor signs. The six-week Baseline Period started with a screening visit followed by an observation period where subjects were assessed for baseline seizure activity based on recordings of daily seizure activity entered into the diary.
# Randomization was double-blind and stratified by age group (<6 years, ≥6 years) across treatment groups. A placebo solution, identical in appearance and taste, was also provided. Daily doses were administered with food in 2 equal doses, one in the morning and one in the evening approximately 12 hours apart. […] The other groups underwent dummy titrations to maintain the blind. Patients were maintained on their final dose for an additional 12 weeks (the Maintenance Period). At the conclusion of the Treatment Period (Titration plus Maintenance), eligible patients electing to continue in an optional open-label extension (OLE) study underwent a 2-week transition period, whereas patients exiting the study underwent a 2-week taper and follow-up.
# ZX008 was supplied as an oral solution in concentrations of 1.25, 2.5, and 5 mg/mL. Subjects will be randomized to receive 1 of 2 doses of ZX008 (0.2 mg/kg/day, 0.8 mg/kg/day; up to 30 mg/day) or placebo. Study medication will be administered twice a day (BID) in equally divided doses with food. To the placebo group, as a negative control, an oral solution not containing fenfluramine was administered.
# Monthly convulsive seizure frequency (MCSF) was expressed per 28 days. The primary end point was the change in mean MCSF) between the baseline period and the combined titration and maintenance periods in subjects treated with ZX008 0.8 mg/kg/day compared with the group treated with placebo. Five key secondary end points were pre-specified: the comparison of the ZX008 0.2 mg/kg/day group with placebo for the change in MCSF between baseline and the combined titration and maintenance periods, comparison of both ZX008 groups independently with placebo on the proportion of subjects who achieved a ≥50% reduction from baseline in MCSF and the comparison of both ZX008 groups with placebo on the longest seizure-free interval observed in each group. A serial gatekeeping procedure was used to maintain the simultaneous type 1 error rate at α=0.05 across the analyses of the primary and 5 key secondary end points. […]
smiles,measurement,setting,value
"CCNC(C)Cc1cccc(C(F)(F)F)c1 (stereo not shown) [ZX008, fenfluramine hydrochloride]","Pediatric Quality of Life Inventory (Peds QL) Total Score, change from baseline, mean ± SD",[1]; 0.2 mg/kg/day,6.8 ± 11.3
same,"Pediatric Quality of Life Inventory (Peds QL) Total Score, change from baseline, mean ± SD",[1]; 0.8 mg/kg/day,5.9 ± 15.1
same,"CGI-I Investigator rating 'very much improved' or 'much improved', %","[2]; 0.2 mg/kg/day, n = 39",(41.0%)
same,"CGI-I Parent/caregiver rating 'very much improved' or 'much improved', %","[2]; 0.2 mg/kg/day, n = 39",(41.0%)
same,"CGI-I Investigator rating 'very much improved' or 'much improved', %","[2]; 0.8 mg/kg/day, n = 40",(55.0%)
same,"CGI-I Parent/caregiver rating 'very much improved' or 'much improved', %","[2]; 0.8 mg/kg/day, n = 40",(55.0%)
same,"Longest seizure free interval, estimate of median treatment difference",[3]; 0.2 mg/kg/day vs placebo,-5.0 days
same,Greater reduction in mean MCSF compared with placebo,[3]; 0.2 mg/kg/day,33.7%
same,Reduction from baseline in mean MCSF,"[3]; 0.2 mg/kg/day, after 6 weeks of treatment",−26.3%
same,Reduction from baseline in mean MCSF,"[3]; 0.2 mg/kg/day, after 10 weeks of treatment",−22.4%
same,Reduction from baseline in mean MCSF,"[3]; 0.2 mg/kg/day, after 14 weeks of treatment",−22.2%
same,"100% reduction (seizure freedom during entire 14-week treatment period), n of subjects","[3]; 0.2 mg/kg/day, n = 39",3
same,"Longest seizure free interval, median","[3]; 0.2 mg/kg/day, n = 39",14 days
same,"Percent change in convulsive seizure frequency per 28 days, LS means ± SE","[3]; 0.2 mg/kg/day, n = 39",−22.50 ± 9.28%
same,"Percent change in convulsive seizure frequency per 28 days, median","[3]; 0.2 mg/kg/day, n = 39",−37.6%
same,"Responder analysis ≥25% reduction in MCSF, % of subjects","[3]; 0.2 mg/kg/day, n = 39",(61.5%)
same,"Responder analysis ≥25% reduction in MCSF, OR vs placebo","[3]; 0.2 mg/kg/day, n = 39",3.80
same,"Responder analysis ≥25% reduction in MCSF, n of subjects","[3]; 0.2 mg/kg/day, n = 39",24
same,"Responder analysis ≥50% reduction in MCSF, % of subjects","[3]; 0.2 mg/kg/day, n = 39",(41.0%)
same,"Responder analysis ≥50% reduction in MCSF, OR vs placebo","[3]; 0.2 mg/kg/day, n = 39",10.10
same,"Responder analysis ≥50% reduction in MCSF, n of subjects","[3]; 0.2 mg/kg/day, n = 39",16
same,"Responder analysis ≥75% reduction in MCSF, % of subjects","[3]; 0.2 mg/kg/day, n = 39",(20.5%)
same,"Responder analysis ≥75% reduction in MCSF, OR vs placebo","[3]; 0.2 mg/kg/day, n = 39",10.46
same,"Responder analysis ≥75% reduction in MCSF, n of subjects","[3]; 0.2 mg/kg/day, n = 39",8
same,"Change in convulsive seizure frequency per 28 days, % Difference from placebo, LS mean (key secondary endpoint)","[3]; 0.2 mg/kg/day, n = 39, baseline vs titration + maintenance",−33.74%
same,"Near-seizure freedom (0 or a single seizure during 14-week Treatment Period), % of subjects",[3]; 0.2 mg/kg/day,12.8%
same,"Near-seizure freedom (0 or a single seizure during 14-week Treatment Period), number of subjects",[3]; 0.2 mg/kg/day,5
same,"Longest seizure free interval, estimate of median treatment difference",[3]; 0.8 mg/kg/day vs placebo,-11.5 days
same,Greater reduction in mean MCSF compared with placebo,[3]; 0.8 mg/kg/day,63.9%
same,Reduction from baseline in mean MCSF,"[3]; 0.8 mg/kg/day, after 6 weeks of treatment",−62.4%
same,Reduction from baseline in mean MCSF,"[3]; 0.8 mg/kg/day, after 10 weeks of treatment",−61.8%
same,Reduction from baseline in mean MCSF,"[3]; 0.8 mg/kg/day, after 14 weeks of treatment",−62.2%
same,"100% reduction (seizure freedom during entire 14-week treatment period), n of subjects","[3]; 0.8 mg/kg/day, n = 40",3
same,"Longest seizure free interval, median","[3]; 0.8 mg/kg/day, n = 40",20.5 days
same,"Percent change in convulsive seizure frequency per 28 days, median","[3]; 0.8 mg/kg/day, n = 40",−72.4%
same,"Responder analysis ≥25% reduction in MCSF, % of subjects","[3]; 0.8 mg/kg/day, n = 40",(92.5%)
same,"Responder analysis ≥25% reduction in MCSF, OR vs placebo","[3]; 0.8 mg/kg/day, n = 40",42.91
same,"Responder analysis ≥25% reduction in MCSF, n of subjects","[3]; 0.8 mg/kg/day, n = 40",37
same,"Responder analysis ≥50% reduction in MCSF, % of subjects","[3]; 0.8 mg/kg/day, n = 40",(70.0%)
same,"Responder analysis ≥50% reduction in MCSF, OR vs placebo","[3]; 0.8 mg/kg/day, n = 40",29.10
same,"Responder analysis ≥50% reduction in MCSF, n of subjects","[3]; 0.8 mg/kg/day, n = 40",28
same,"Responder analysis ≥75% reduction in MCSF, OR vs placebo","[3]; 0.8 mg/kg/day, n = 40",49.49
same,"Responder analysis ≥75% reduction in MCSF, n of subjects","[3]; 0.8 mg/kg/day, n = 40",18
same,"Change in convulsive seizure frequency per 28 days, % Difference from placebo, LS mean (primary endpoint)","[3]; 0.8 mg/kg/day, n = 40, baseline vs titration + maintenance",−63.89%
same,"Near-seizure freedom (0 or a single seizure during 14-week Treatment Period), % of subjects",[3]; 0.8 mg/kg/day,25%
same,"Near-seizure freedom (0 or a single seizure during 14-week Treatment Period), number of subjects",[3]; 0.8 mg/kg/day,10
